Tested on: mice
Assay: Neuropharmacological Assay (SmartCube)
Type: in vivo
Details: i.p. 15 min before behavioral test; 3 doses, most efficacious dose(s) presented

How did the “AD: ADHD (probability of class match)” value turn out when `Cl.NCC1OCCCn2nc3ccccc3c21` (centres unmarked) [Compound 56, (4,5-dihydro-1H,3H-[1,4]oxazepino[4,3-b]indazol-1-yl)methanaminium chloride] was run?
The value was “+ (LOQ≦ + <5%)”.

What about the “AG: analgesic (probability of class match)” value (shortened to “AG: analgesic”) of the same compound?
The value was “+ (LOQ≦ + <5%)”.

What about the “AX: anxiolytic (probability of class match)” value (“AX: anxiolytic” for short) of the same compound?
Its value is “+ (LOQ≦ + <5%)”.

What about the “CE: cognitive enhancer (probability of class match)” value (“CE: cognitive enhancer” for short) of the same compound?
The value was “+ (LOQ≦ + <5%)”.

What about the “DP: anti-depressant (probability of class match)” value (“DP: anti-depressant” for short) of the same compound?
Its value is “+ (LOQ≦ + <5%)”.

And the “HA: hallucinogen (probability of class match)” value (from here on “HA: hallucinogen”)?
The value was “+ (LOQ≦ + <5%)”.

And the “MS: mood stabilizer (probability of class match)” value (shortened to “MS: mood stabilizer”)?
Its value is “+ (LOQ≦ + <5%)”.

And the “PS: anti-psychotic (probability of class match)” value (shortened to “PS: anti-psychotic”)?
Its value is “+ (LOQ≦ + <5%)”.

What about the “SD: sedative hypnotic (probability of class match)” value (from here on “SD: sedative hypnotic”) of the same compound?
Its value is “+ (LOQ≦ + <5%)”.

What about the “UN: uncharacterized CNS activity (probability of class match)” value (“UN: uncharacterized CNS activity” below) of the same compound?
The value was “+ (LOQ≦ + <5%)”.

And the “XG: anxiogenic (probability of class match)” value (from here on “XG: anxiogenic”)?
Its value is “+ (LOQ≦ + <5%)”.

`CCNCC1OCCCn2nc3ccccc3c21.Cl` (centres unmarked) [Compound 57, N-((4,5-dihydro-1H,3H-[1,4]oxazepino[4,3-b]indazol-1-yl)methyl)ethanaminium chloride] was tested. Which “AD: ADHD (probability of class match)” value did it give?
Its value is “+ (LOQ≦ + <5%)”.

And the “AG: analgesic” value?
Its value is “+ (LOQ≦ + <5%)”.

What about the “AX: anxiolytic” value of the same compound?
The value was “+ (LOQ≦ + <5%)”.

What about the “CE: cognitive enhancer” value of the same compound?
Its value is “+ (LOQ≦ + <5%)”.

And the “DP: anti-depressant” value?
The value was “+ (LOQ≦ + <5%)”.

And the “HA: hallucinogen” value?
The value was “+ (LOQ≦ + <5%)”.

And the “MS: mood stabilizer” value?
The value was “+ (LOQ≦ + <5%)”.

What about the “PS: anti-psychotic” value of the same compound?
Its value is “+ (LOQ≦ + <5%)”.

And the “SD: sedative hypnotic” value?
The value was “+ (LOQ≦ + <5%)”.

And the “UN: uncharacterized CNS activity” value?
The value was “+ (LOQ≦ + <5%)”.

What about the “XG: anxiogenic” value of the same compound?
Its value is “+ (LOQ≦ + <5%)”.

What does the source list for `CNCC1OCCn2nc3ccsc3c21.Cl` (centres unmarked) [Compound 58, 1-(6,7-dihydro-9H-thieno[3′,2′:3,4]pyrazolo[5,1-c][1,4]oxazin-9-yl)-N-methylmethanaminium chloride]?
AD: ADHD (probability of class match): ++ (5%≦ ++ <25%); AG: analgesic (probability of class match): + (LOQ≦ + <5%); AX: anxiolytic (probability of class match): ++ (5%≦ ++ <25%); CE: cognitive enhancer (probability of class match): + (LOQ≦ + <5%); DP: anti-depressant (probability of class match): ++++ (50%≦ ++++); HA: hallucinogen (probability of class match): ++ (5%≦ ++ <25%); MS: mood stabilizer (probability of class match): + (LOQ≦ + <5%); PS: anti-psychotic (probability of class match): + (LOQ≦ + <5%); SD: sedative hypnotic (probability of class match): ++ (5%≦ ++ <25%); UN: uncharacterized CNS activity (probability of class match): + (LOQ≦ + <5%); XG: anxiogenic (probability of class match): + (LOQ≦ + <5%)

Which results are given for `CN(C)CC1OCCn2nc3ccsc3c21.Cl` (centres unmarked) [Compound 59, 1-(6,7-dihydro-9H-thieno[3′,2′:3,4]pyrazolo[5,1-c][1,4]oxazin-9-yl)-N,N-dimethylmethanaminium chloride]?
AD: ADHD (probability of class match): + (LOQ≦ + <5%); AG: analgesic (probability of class match): ++ (5%≦ ++ <25%); AX: anxiolytic (probability of class match): ++ (5%≦ ++ <25%); CE: cognitive enhancer (probability of class match): ++ (5%≦ ++ <25%); DP: anti-depressant (probability of class match): ++ (5%≦ ++ <25%); HA: hallucinogen (probability of class match): + (LOQ≦ + <5%); MS: mood stabilizer (probability of class match): + (LOQ≦ + <5%); PS: anti-psychotic (probability of class match): ++ (5%≦ ++ <25%); SD: sedative hypnotic (probability of class match): + (LOQ≦ + <5%); UN: uncharacterized CNS activity (probability of class match): +++ (25%≦ +++ <50%); XG: anxiogenic (probability of class match): + (LOQ≦ + <5%)

How did the “AD: ADHD (probability of class match)” value turn out when `Cl.NCC1OCCn2nc3ccsc3c21` (centres unmarked) [Compound 60, (6,7-dihydro-9H-thieno[3′,2′:3,4]pyrazolo[5,1-c][1,4]oxazin-9-yl)methanaminium chloride] was run?
The value was “++ (5%≦ ++ <25%)”.

And the “AG: analgesic” value?
The value was “+ (LOQ≦ + <5%)”.

What about the “AX: anxiolytic” value of the same compound?
Its value is “+++ (25%≦ +++ <50%)”.

What about the “CE: cognitive enhancer” value of the same compound?
The value was “+ (LOQ≦ + <5%)”.

And the “DP: anti-depressant” value?
Its value is “++ (5%≦ ++ <25%)”.

And the “HA: hallucinogen” value?
The value was “+ (LOQ≦ + <5%)”.

And the “MS: mood stabilizer” value?
The value was “+ (LOQ≦ + <5%)”.

And the “PS: anti-psychotic” value?
The value was “+ (LOQ≦ + <5%)”.

And the “SD: sedative hypnotic” value?
The value was “++ (5%≦ ++ <25%)”.

What about the “UN: uncharacterized CNS activity” value of the same compound?
Its value is “+ (LOQ≦ + <5%)”.

What about the “XG: anxiogenic” value of the same compound?
The value was “+ (LOQ≦ + <5%)”.

How did the “AD: ADHD (probability of class match)” value turn out when `CNCC1OCCn2nc3cnccc3c21.Cl.Cl` (centres unmarked) [Compound 61, 1-((methylammonio)methyl)-3,4-dihydro-1H-pyrido[3′,4′:3,4]pyrazolo[5,1-c][1,4]oxazin-8-ium chloride] was run?
The value was “++ (5%≦ ++ <25%)”.

And the “AG: analgesic” value?
Its value is “+ (LOQ≦ + <5%)”.

What about the “AX: anxiolytic” value of the same compound?
The value was “+ (LOQ≦ + <5%)”.

And the “CE: cognitive enhancer” value?
Its value is “+ (LOQ≦ + <5%)”.

What about the “DP: anti-depressant” value of the same compound?
The value was “++++ (50%≦ ++++)”.

What about the “HA: hallucinogen” value of the same compound?
Its value is “++ (5%≦ ++ <25%)”.

And the “MS: mood stabilizer” value?
The value was “+ (LOQ≦ + <5%)”.

What about the “PS: anti-psychotic” value of the same compound?
Its value is “+ (LOQ≦ + <5%)”.

What about the “SD: sedative hypnotic” value of the same compound?
Its value is “+ (LOQ≦ + <5%)”.

And the “UN: uncharacterized CNS activity” value?
Its value is “++ (5%≦ ++ <25%)”.

And the “XG: anxiogenic” value?
The value was “+ (LOQ≦ + <5%)”.

For `CN(C)CC1OCCn2nc3cnccc3c21.Cl.Cl` (centres unmarked) [Compound 62, 1-((dimethylammonio)methyl)-3,4-dihydro-1H-pyrido[3′,4′:3,4]pyrazolo[5,1-c][1,4]oxazin-8-ium chloride], which “AD: ADHD (probability of class match)” value is on record?
Its value is “+ (LOQ≦ + <5%)”.

What about the “AG: analgesic” value of the same compound?
Its value is “+ (LOQ≦ + <5%)”.

What about the “AX: anxiolytic” value of the same compound?
The value was “++ (5%≦ ++ <25%)”.

What about the “CE: cognitive enhancer” value of the same compound?
The value was “+ (LOQ≦ + <5%)”.

What about the “DP: anti-depressant” value of the same compound?
The value was “+ (LOQ≦ + <5%)”.

What about the “HA: hallucinogen” value of the same compound?
The value was “+ (LOQ≦ + <5%)”.

And the “MS: mood stabilizer” value?
The value was “+ (LOQ≦ + <5%)”.

What about the “PS: anti-psychotic” value of the same compound?
Its value is “+ (LOQ≦ + <5%)”.

What about the “SD: sedative hypnotic” value of the same compound?
The value was “+ (LOQ≦ + <5%)”.

What about the “UN: uncharacterized CNS activity” value of the same compound?
Its value is “+ (LOQ≦ + <5%)”.

And the “XG: anxiogenic” value?
The value was “+ (LOQ≦ + <5%)”.

Which results are given for `c1ccc2c3n(nc2c1)CCOC3CN1CC1` (centres unmarked) [Compound 63, 1-(aziridin-1-ylmethyl)-3,4-dihydro-1H-[1,4]oxazino[4,3-b]indazole]?
AD: ADHD (probability of class match): + (LOQ≦ + <5%); AG: analgesic (probability of class match): +++ (25%≦ +++ <50%); AX: anxiolytic (probability of class match): + (LOQ≦ + <5%); CE: cognitive enhancer (probability of class match): + (LOQ≦ + <5%); DP: anti-depressant (probability of class match): ++ (5%≦ ++ <25%); HA: hallucinogen (probability of class match): + (LOQ≦ + <5%); MS: mood stabilizer (probability of class match): + (LOQ≦ + <5%); PS: anti-psychotic (probability of class match): + (LOQ≦ + <5%); SD: sedative hypnotic (probability of class match): ++ (5%≦ ++ <25%); UN: uncharacterized CNS activity (probability of class match): + (LOQ≦ + <5%); XG: anxiogenic (probability of class match): + (LOQ≦ + <5%)

For `c1ccc2c3n(nc2c1)CCOC3[C@@H]1CCN1` (stereo partly drawn) [Compound 64, (2S)-2-(3,4-dihydro-1H-[1,4]oxazino[4,3-b]indazol-1-yl)azetidin-1-ium chloride], which “AD: ADHD (probability of class match)” value is on record?
The value was “++++ (50%≦ ++++)”.

What about the “AG: analgesic” value of the same compound?
Its value is “++ (5%≦ ++ <25%)”.

And the “AX: anxiolytic” value?
Its value is “++ (5%≦ ++ <25%)”.

What about the “CE: cognitive enhancer” value of the same compound?
Its value is “+ (LOQ≦ + <5%)”.

And the “DP: anti-depressant” value?
Its value is “++ (5%≦ ++ <25%)”.

What about the “HA: hallucinogen” value of the same compound?
The value was “+ (LOQ≦ + <5%)”.

And the “MS: mood stabilizer” value?
Its value is “+ (LOQ≦ + <5%)”.

What about the “PS: anti-psychotic” value of the same compound?
Its value is “+ (LOQ≦ + <5%)”.

And the “SD: sedative hypnotic” value?
The value was “+ (LOQ≦ + <5%)”.

What about the “UN: uncharacterized CNS activity” value of the same compound?
Its value is “+++ (25%≦ +++ <50%)”.

And the “XG: anxiogenic” value?
Its value is “+ (LOQ≦ + <5%)”.

Which “AD: ADHD (probability of class match)” value does the source give for `CN1CC[C@H]1C1OCCn2nc3ccccc3c21` (stereo partly drawn) [Compound 65, ((2S)-2-(3,4-dihydro-1H-[1,4]oxazino[4,3-b]indazol-1-yl)-1-methylazetidin-1-ium chloride] here?
Its value is “+ (LOQ≦ + <5%)”.

What about the “AG: analgesic” value of the same compound?
The value was “+++ (25%≦ +++ <50%)”.

And the “AX: anxiolytic” value?
The value was “++ (5%≦ ++ <25%)”.

What about the “CE: cognitive enhancer” value of the same compound?
The value was “++ (5%≦ ++ <25%)”.

What about the “DP: anti-depressant” value of the same compound?
The value was “++ (5%≦ ++ <25%)”.

And the “HA: hallucinogen” value?
The value was “+ (LOQ≦ + <5%)”.

What about the “MS: mood stabilizer” value of the same compound?
Its value is “+ (LOQ≦ + <5%)”.

What about the “PS: anti-psychotic” value of the same compound?
The value was “+ (LOQ≦ + <5%)”.

What about the “SD: sedative hypnotic” value of the same compound?
The value was “++ (5%≦ ++ <25%)”.

And the “UN: uncharacterized CNS activity” value?
Its value is “+ (LOQ≦ + <5%)”.

What about the “XG: anxiogenic” value of the same compound?
Its value is “++ (5%≦ ++ <25%)”.

From US9758529B2, “Fused dihydro-4H-pyrazolo[5,1-C][1,4]oxazinyl compounds and analogs for treating CNS disorders” (Sunovion Pharmaceuticals Inc., priority 2015, dated 2017)
